{"source": "patent US9682047B2", "about": "“Augmentation of oncology immunotherapies by pterostilbene containing compositions” (THERAPEUTIC SOLUTIONS INTERNATIONAL, INC., priority 2015, dated 2017)", "key": {"[1]": {"settings": "in vivo; cited from earlier work"}, "[2]": {"settings": "cited from earlier work"}, "IFN-gamma": {"test_system": "IFN-gamma", "assay": "Mitogen (Concanavalin A) induced IFN-gamma production by splenocyte mononuclear cells of treated mice, ELISA", "type": "in vivo", "settings": "splenocytes of B16-bearing mice treated as in Example 3, Concanavalin A 5 μg/mL, saline control about 200 ng/mL, FIG. 2", "description": "FIG. 2 illustrates the stimulation of mitogen induced IFN-gamma production by pterostilbene in mice. Mice were treated as described in FIG. 1 (from left to right: saline; 25 μg/kg pterostilbene; 500 IU/mouse IL-2; and a combination of IL-2 and pterostilbene at the indicated concentrations). Mononuclear cells were obtained and plated in 96-well plates and treated with Concanavalin A at 5 μg/mL. IFN-gamma was assessed by ELISA. The y-axis is expressed as ng/mL.\nMice from Example 3 where euthanized by cervical dislocation and spleens were excised in a sterile manner. Splenocyte mononuclear cells were obtained by hypotonic lysis and washed 3 times in PBS. Mononuclear cells were plated in 96 well plates and treated with Concanavalin A at 5 μg/mL. Interferon gamma was assessed by ELISA and expressed as ng/mL. […] In contrast, mononuclear cells of mice treated with pterostilbene alone expressed about 900 ng/mL IFN-gamma, and mononuclear cells of mice treated with the combination of pterostilbene and IL-2 expressed about 1500 ng/mL IFN-gamma. As disclosed herein, enhanced expression of IFN-gamma elicits an immune response."}, "[3]": {"settings": "in vivo; cited from earlier work", "remark": "listed apart in the source"}}}
{"smiles": "COc1cc(/C=C/c2ccc(O)cc2)cc(OC)c1", "note": "[pterostilbene, trans-3,5-dimethoxy-4′-hydroxy-trans-stilbene]", "values": [{"measurement": "half-life", "setting": "[1]", "value": "approximately 2 hr"}, {"measurement": "solubility in aqueous solution", "setting": "[2]", "value": "sparingly soluble"}, {"measurement": "IFN-gamma expressed by mononuclear cells", "setting": "IFN-gamma", "value": "about 900 ng/mL"}]}
{"smiles": "Oc1ccc(/C=C/c2cc(O)cc(O)c2)cc1", "note": "[t-RESV, trans-3,5,4′-trihydroxystilbene]", "values": [{"measurement": "systemic bioavailability", "setting": "[3]", "value": "low"}]}
